This passage reports inhibition and IC50 results from patent US7427625B2, “Substituted thiatriazaacenaphthylene-6-carbonitrile kinase inhibitors” (Janssen Pharmaceutica, N.V., priority 2006, dated 2008).

Each structure is given as a SMILES string.

Holding throughout (assay type): biochemical
One assay addresses T1, EGFR (Homo sapiens, UniProt P00533).
T1 construct: The intracellular portion of EGFR started at nucleotide 2189 (corresponding to amino acid 667) and ended at the termination codon; made in house; host or cells: Sf9 insect cells (baculovirus)
The assay can be described thus: EGFR Kinase Assay. Conditions: for inhibition at 2 µM: test concentration of 2 μM, read-out: EGFR percent inhibition. Put shortly:
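GST-fused EGFR intracellular domain (aa 667 to end), Sf9-expressed, phosphorylating biotinylated polyGluTyr with 5 μM ATP plus γ-33P ATP in Tris pH 8.0, MgCl2, vanadate, 1 mM DTT; 1 h, 30 °C, streptavidin Flashplate scintillation read. Triplicate 16-point half-log series from 200 uM; IC50 from % inhibition vs log concentration, else % inhibition at 2 μM.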

The next assay addresses T2, c-Src kinase (Homo sapiens, UniProt P12931).
T2 construct: purchased Upstate Biotechnology, Lake Placid, N.Y
Nature of the assay: c-Src Kinase Assay. The note with it: for inhibition at 2 µM: test concentration of 2 μM, read-out: c-Src percent inhibition. On the procedure:
A mixture of a 10× kinase buffer (80 mM MOPS at pH 7.0, 2 mM EDTA and 100 mM Magnesium Chloride), ATP (5 μM final from a 10 mM stock), a Cdc2 peptide KVEKIGEGTYVVYK (100 μM final from a 2.5 mM stock), γ-^33P ATP (10 μCi/μL stock) and water (20 μL/well) was added to each well of a Streptavidin Flashplate.
Test compound in 100% DMSO (0.5 μL) was added to the appropriate wells. Diluted c-Src kinase (human) (Upstate Biotechnology, Lake Placid, N.Y.) (diluted in a buffer consisting of 20 mM MOPS at pH 7.0, 1 mM EDTA, β-mercaptoethanol (0.1%), Brij-35 (0.01%), glycerol (5%) and 1 mg/mL bovine serum albumin) (2.5 μL) was added to the wells to initiate the reactions. The reaction plates were incubated at 30° C. for 40 min. The reaction was terminated by the addition of a 3% phosphoric acid solution (5 μL). The reaction product (10 μL) was spotted onto a P30 filtermat and washed for 5 minutes in phosphoric acid (75 mM). The wash sequence was repeated two more times, followed with one final wash in methanol. The plates were then dried, sealed and read on the TopCount scintillation counter after adding 30 μL scintillation fluid.
Percent inhibition was derived according to the procedure described in Example 2. For those compounds without an IC50, the percent inhibition results are shown at a test concentration of 2 μM.

The target of the next assay is T3, HER-2 (Homo sapiens, UniProt P04626).
T3 construct: the nucleotides encoding amino acids 679 to 1255 of HER-2; purchased Proqinase (Freiburg, Germany)
T3 sequence (P04626 679-1255): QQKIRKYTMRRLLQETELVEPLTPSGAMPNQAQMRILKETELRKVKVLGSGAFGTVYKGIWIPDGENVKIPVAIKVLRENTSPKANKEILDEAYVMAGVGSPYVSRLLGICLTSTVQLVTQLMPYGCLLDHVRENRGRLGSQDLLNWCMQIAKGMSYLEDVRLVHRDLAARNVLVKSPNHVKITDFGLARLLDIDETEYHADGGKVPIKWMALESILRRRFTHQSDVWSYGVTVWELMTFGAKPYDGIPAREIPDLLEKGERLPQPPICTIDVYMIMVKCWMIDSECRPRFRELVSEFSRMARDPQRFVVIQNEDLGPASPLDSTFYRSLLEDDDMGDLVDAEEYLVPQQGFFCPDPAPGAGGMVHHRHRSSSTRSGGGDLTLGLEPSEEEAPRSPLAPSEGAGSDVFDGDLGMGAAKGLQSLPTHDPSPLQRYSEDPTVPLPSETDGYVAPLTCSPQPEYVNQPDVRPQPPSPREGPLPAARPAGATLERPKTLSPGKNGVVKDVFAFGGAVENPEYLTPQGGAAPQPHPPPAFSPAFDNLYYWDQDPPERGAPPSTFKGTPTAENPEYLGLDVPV
The assay can be described thus: HER-2 Kinase Assay. Put shortly: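 GST-HIS6-thrombin fusion of HER-2 residues 679–1255, assayed with biotinylated polyGluTyr, 1 μM ATP plus γ-33P-ATP, Mg2+, Mn2+ and vanadate in Hepes pH 7.5 for 1 h at 30 °C. Incorporation read by streptavidin Flashplate scintillation counting; IC50 values, or % inhibition at 1 μM.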

As usually defined, the inhibition is the drop in the measured response relative to a control, in per cent. One may read the IC50 as the concentration that inhibits the measured activity by half. Low readings indicate inhibition by little substance, high ones a need for much substance.

T1 sequence (P00533 669-1210 limits assumed): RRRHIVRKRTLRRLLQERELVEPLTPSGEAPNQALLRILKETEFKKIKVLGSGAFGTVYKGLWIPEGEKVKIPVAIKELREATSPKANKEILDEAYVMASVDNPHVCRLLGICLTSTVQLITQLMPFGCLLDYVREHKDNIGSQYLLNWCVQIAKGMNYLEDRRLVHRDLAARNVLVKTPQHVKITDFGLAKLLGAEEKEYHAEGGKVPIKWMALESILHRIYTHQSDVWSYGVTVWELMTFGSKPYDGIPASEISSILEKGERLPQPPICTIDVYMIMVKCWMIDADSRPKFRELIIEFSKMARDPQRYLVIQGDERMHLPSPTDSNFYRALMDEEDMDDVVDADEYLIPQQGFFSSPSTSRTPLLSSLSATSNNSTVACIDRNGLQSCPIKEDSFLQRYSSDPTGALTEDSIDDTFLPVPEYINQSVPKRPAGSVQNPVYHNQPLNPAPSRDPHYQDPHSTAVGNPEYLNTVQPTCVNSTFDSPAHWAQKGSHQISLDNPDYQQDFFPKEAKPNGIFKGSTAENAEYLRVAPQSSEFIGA
T2 sequence (P12931 whole entry): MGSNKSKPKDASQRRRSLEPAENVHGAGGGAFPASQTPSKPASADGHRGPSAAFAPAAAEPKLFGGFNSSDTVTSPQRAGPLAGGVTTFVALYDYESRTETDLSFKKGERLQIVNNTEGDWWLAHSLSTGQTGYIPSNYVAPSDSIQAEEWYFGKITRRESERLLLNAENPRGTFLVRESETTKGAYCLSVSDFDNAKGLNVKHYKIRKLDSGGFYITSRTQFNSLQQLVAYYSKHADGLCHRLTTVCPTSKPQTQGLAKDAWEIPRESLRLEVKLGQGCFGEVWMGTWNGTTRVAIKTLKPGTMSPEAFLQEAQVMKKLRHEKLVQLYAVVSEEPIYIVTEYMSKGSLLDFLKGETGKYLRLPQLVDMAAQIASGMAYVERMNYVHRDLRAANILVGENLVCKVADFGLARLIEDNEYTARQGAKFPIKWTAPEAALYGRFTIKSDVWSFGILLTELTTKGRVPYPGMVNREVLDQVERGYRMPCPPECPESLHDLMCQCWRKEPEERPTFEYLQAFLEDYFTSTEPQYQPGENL

For the compound `N#Cc1c(N2CCOCC2)nc2sc(C(=O)Nc3ccc(CN4CCOCC4)cc3)c3c2c1N(c1c(Cl)ccc2c1OCO2)C(=O)N3` [Cpd 8, 5-(5-chloro-benzo[1,3]dioxol-4-yl)-6-cyano-7-morpholin-4-yl-4-oxo-4,5-dihydro-3H-1-thia-3,5,8-triaza-acenaphthylene-2-carboxylic acid (4-morpholin-4-ylmethyl-phenyl)-amide], the values for the inhibition at 2 µM at EGFR and on c-Src kinase were -6% and -21%, respectively. The IC50 against HER-2 is about 100000 nM.
Turning to `N#Cc1cnc2sc(C(=O)Nc3ccc(CN4CCOCC4)cc3)c3c2c1N(c1c(Cl)ccc2c1OCO2)C(=O)N3` [Cpd 4, 5-(5-chloro-benzo[1,3]dioxol-4-yl)-6-cyano-4-oxo-4,5-dihydro-3H-1-thia-3,5,8-triaza-acenaphthylene-2-carboxylic acid (4-morpholin-4-ylmethyl-phenyl)-amide], the inhibition at 2 µM on EGFR is 36%. The IC50 against c-Src kinase came to 57.4 nM; on HER-2 it was 5350 nM.
For the compound `CCOC(=O)c1sc2nc(-c3cc(F)ccc3Cl)c(C#N)c3c2c1NC(=O)N3c1ccncc1` [Cpd 15, 7-(2-chloro-5-fluoro-phenyl)-6-cyano-4-oxo-5-pyridin-4-yl-4,5-dihydro-3H-1-thia-3,5,8-triaza-acenaphthylene-2-carboxylic acid ethyl ester], the figures for the inhibition at 2 µM on EGFR and at c-Src kinase were 6% and -0.6%, respectively. The IC50 against HER-2 was over 100000 nM.
As to `CN1CCN(CCc2ccc(NC(=O)c3sc4ncc(C#N)c5c4c3NC(=O)N5c3c(Cl)ccc4c3OCO4)cc2)CC1` [Cpd 12, 5-(5-chloro-benzo[1,3]dioxol-4-yl)-6-cyano-4-oxo-4,5-dihydro-3H-1-thia-3,5,8-triaza-acenaphthylene-2-carboxylic acid {4-[2-(4-methyl-piperazin-1-yl)-ethyl]-phenyl}-amide], the IC50 came to 2700 nM against EGFR and 5550 nM at HER-2. Moreover, on c-Src kinase, the inhibition at 2 µM is 91%.
Turning to `N#Cc1cnc2sc(C(=O)Nc3ccc(CCN4CCCCC4)cc3)c3c2c1N(c1c(Cl)ccc2c1OCO2)C(=O)N3` [Cpd 11, 5-(5-chloro-benzo[1,3]dioxol-4-yl)-6-cyano-4-oxo-4,5-dihydro-3H-1-thia-3,5,8-triaza-acenaphthylene-2-carboxylic acid [4-(2-piperidin-1-yl-ethyl)-phenyl]-amide], the IC50 against EGFR is 1600 nM; against c-Src kinase, 71.2 nM; at HER-2, 2910 nM.
In the case of `N#Cc1cnc2sc(C(=O)Nc3ccc(CN4CCCCC4)cc3)c3c2c1N(c1ccc(Oc2ccccc2)cc1)C(=O)N3` [Cpd 49, 6-cyano-4-oxo-5-(4-phenoxy-phenyl)-4,5-dihydro-3H-1-thia-3,5,8-triaza-acenaphthylene-2-carboxylic acid (4-piperidin-1-ylmethyl-phenyl)-amide], the IC50 against EGFR was 224 nM; on HER-2 it was 836 nM.
`CN1CCC(NC(=O)c2sc3ncc(C#N)c4c3c2NC(=O)N4c2c(Cl)ccc3c2OCO3)CC1` [Cpd 10, 5-(5-chloro-benzo[1,3]dioxol-4-yl)-6-cyano-4-oxo-4,5-dihydro-3H-1-thia-3,5,8-triaza-acenaphthylene-2-carboxylic acid (1-methyl-piperidin-4-yl)-amide]: the IC50 was determined as 3960 nM at EGFR, 87 nM against c-Src kinase and 7160 nM on HER-2.
As to `N#Cc1cnc2sc(C(=O)Nc3ccc(CCN4CCOCC4)cc3)c3c2c1N(c1c(Cl)ccc2c1OCO2)C(=O)N3` [Cpd 13, 5-(5-chloro-benzo[1,3]dioxol-4-yl)-6-cyano-4-oxo-4,5-dihydro-3H-1-thia-3,5,8-triaza-acenaphthylene-2-carboxylic acid [4-(2-morpholin-4-yl-ethyl)-phenyl]-amide], the results for the inhibition at 2 µM at EGFR and at c-Src kinase were 23% and 78%, respectively. This compound also returned an IC50 against HER-2 of over 1000 nM.
As for `COc1cc(N2C(=O)Nc3c(C(=O)Nc4ccc(CN5CCOCC5)cc4)sc4ncc(C#N)c2c34)c(Cl)cc1Cl` [Cpd 5, 6-cyano-5-(2,4-dichloro-5-methoxy-phenyl)-4-oxo-4,5-dihydro-3H-1-thia-3,5,8-triaza-acenaphthylene-2-carboxylic acid (4-morpholin-4-ylmethyl-phenyl)-amide], at EGFR, the inhibition at 2 µM was found to be 1%. In addition, the figures for the IC50 against c-Src kinase and at HER-2 were 355 nM and over 10000 nM, respectively.
`CCOC(=O)c1sc2nc(N3CCOCC3)c(C#N)c3c2c1NC(=O)N3c1c(Cl)ccc2c1OCO2` [Cpd 7, 5-(5-chloro-benzo[1,3]dioxol-4-yl)-6-cyano-7-morpholin-4-yl-4-oxo-4,5-dihydro-3H-1-thia-3,5,8-triaza-acenaphthylene-2-carboxylic acid ethyl ester]: the inhibition at 2 µM on EGFR is -5%; at c-Src kinase, -1%. In addition, the IC50 at HER-2 is over 100000 nM.
With `COc1cc(NC(=O)c2sc3ncc(C#N)c4c3c2NC(=O)N4c2ccc(Oc3ccccc3)cc2)ccc1CN1CCOCC1` [Cpd 45, 6-cyano-4-oxo-5-(4-phenoxy-phenyl)-4,5-dihydro-3H-1-thia-3,5,8-triaza-acenaphthylene-2-carboxylic acid (3-methoxy-4-morpholin-4-ylmethyl-phenyl)-amide], the IC50 at EGFR amounted to 93 nM; against HER-2 it was 83.6 nM.
With `CCOC(=O)c1sc2nc(O)c(C#N)c3c2c1NC(=O)N3c1ccncc1` [Cpd 14, 6-cyano-7-hydroxy-4-oxo-5-pyridin-4-yl-4,5-dihydro-3H-1-thia-3,5,8-triaza-acenaphthylene-2-carboxylic acid ethyl ester], the inhibition at 2 µM on EGFR was -9%; on c-Src kinase, 11%. On HER-2, the IC50 is over 100000 nM.
`CN(C)C1CCN(Cc2ccc(NC(=O)c3sc4ncc(C#N)c5c4c3NC(=O)N5c3c(Cl)ccc4c3OCO4)cc2)CC1` [Cpd 42, 5-(5-chloro-benzo[1,3]dioxol-4-yl)-6-cyano-4-oxo-4,5-dihydro-3H-1-thia-3,5,8-triaza-acenaphthylene-2-carboxylic acid [4-(4-dimethylamino-piperidin-1-ylmethyl)-phenyl]-amide]: the IC50 was 850 nM at EGFR and over 1000 nM against HER-2.
Take `CC(C)(C)OC(=O)NC1CCN(Cc2ccc(NC(=O)c3sc4ncc(C#N)c5c4c3NC(=O)N5c3c(Cl)ccc4c3OCO4)cc2)CC1` [Cpd 46, [1-(4-{[5-(5-chloro-benzo[1,3]dioxol-4-yl)-6-cyano-4-oxo-4,5-dihydro-3H-1-thia-3,5,8-triaza-acenaphthylene-2-carbonyl]-amino}-benzyl)-piperidin-4-yl]-carbamic acid tert-butyl ester]: the IC50 at EGFR is 152 nM; against HER-2, 134 nM.
On to `COc1cc(N2C(=O)Nc3c(C(=O)Nc4ccc(CCN5CCOCC5)cc4)sc4ncc(C#N)c2c34)c(Cl)cc1Cl` [Cpd 6, 6-cyano-5-(2,4-dichloro-5-methoxy-phenyl)-4-oxo-4,5-dihydro-3H-1-thia-3,5,8-triaza-acenaphthylene-2-carboxylic acid [4-(2-morpholin-4-yl-ethyl)-phenyl]-amide], for which the inhibition at 2 µM on EGFR came out at 7%. The half-inhibitory concentration (IC50) against c-Src kinase is 368 nM; at HER-2, about 100000 nM.
In the case of `COC1CCN(Cc2ccc(NC(=O)c3sc4ncc(C#N)c5c4c3NC(=O)N5c3c(Cl)ccc4c3OCO4)cc2)CC1` [Cpd 18, 5-(5-chloro-benzo[1,3]dioxol-4-yl)-6-cyano-4-oxo-4,5-dihydro-3H-1-thia-3,5,8-triaza-acenaphthylene-2-carboxylic acid [4-(4-methoxy-piperidin-1-ylmethyl)-phenyl]-amide], the inhibition at 2 µM on EGFR was 38%. In addition, the IC50 against HER-2 came out at 1230 nM.
With `CN(C)C1CCN(C(=O)c2sc3ncc(C#N)c4c3c2NC(=O)N4c2c(Cl)ccc3c2OCO3)CC1` [Cpd 41, 5-(5-chloro-benzo[1,3]dioxol-4-yl)-2-(4-dimethylamino-piperidine-1-carbonyl)-4-oxo-4,5-dihydro-3H-1-thia-3,5,8-triaza-acenaphthylene-6-carbonitrile], on EGFR, the inhibition at 2 µM came out at 7%. Also, inhibition against HER-2 was half-maximal at 13500 nM (IC50).
With `N#Cc1cnc2sc(C(=O)Nc3ccc(CCN4CCCCC4)cc3)c3c2c1N(c1ccc(Oc2ccccc2)cc1)C(=O)N3` [Cpd 48, 6-cyano-4-oxo-5-(4-phenoxy-phenyl)-4,5-dihydro-3H-1-thia-3,5,8-triaza-acenaphthylene-2-carboxylic acid [4-(2-piperidin-1-yl-ethyl)-phenyl]-amide], the inhibition at 2 µM on EGFR came out at 39%. The same compound showed an IC50 on HER-2 of over 10000 nM.
